Experiment [1] deals with T1, full-length beta-Catenin (Uniprot ID P35222) (Homo sapiens, UniProt P35222).
T1 construct: 10 nM full-length beta-Catenin (Uniprot ID P35222)
T1 sequence (P35222 1-781): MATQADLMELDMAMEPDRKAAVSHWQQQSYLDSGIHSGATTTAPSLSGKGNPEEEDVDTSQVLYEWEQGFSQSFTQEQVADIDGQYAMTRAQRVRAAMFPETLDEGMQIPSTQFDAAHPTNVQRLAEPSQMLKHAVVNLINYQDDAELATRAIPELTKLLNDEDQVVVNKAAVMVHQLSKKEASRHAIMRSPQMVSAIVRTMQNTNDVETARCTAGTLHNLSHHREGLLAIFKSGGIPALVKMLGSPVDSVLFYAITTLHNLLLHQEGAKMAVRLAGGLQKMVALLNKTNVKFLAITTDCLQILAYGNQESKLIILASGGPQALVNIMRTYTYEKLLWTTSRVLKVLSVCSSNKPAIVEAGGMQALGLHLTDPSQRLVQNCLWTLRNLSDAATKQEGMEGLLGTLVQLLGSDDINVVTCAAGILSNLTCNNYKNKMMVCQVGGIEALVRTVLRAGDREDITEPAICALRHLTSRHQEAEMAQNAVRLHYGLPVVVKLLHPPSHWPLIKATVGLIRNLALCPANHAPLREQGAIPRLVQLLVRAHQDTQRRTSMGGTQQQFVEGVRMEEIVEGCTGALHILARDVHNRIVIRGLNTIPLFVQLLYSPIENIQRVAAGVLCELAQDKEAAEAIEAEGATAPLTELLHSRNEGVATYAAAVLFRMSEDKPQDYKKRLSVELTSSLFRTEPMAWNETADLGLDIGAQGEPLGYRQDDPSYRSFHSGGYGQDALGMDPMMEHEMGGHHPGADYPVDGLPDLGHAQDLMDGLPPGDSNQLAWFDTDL
As to the kind of experiment: Fluorescence polarization IC50 (beta-catenin / 5FAM-TCF4 10-53 competition). Type of experiment: binding. The conditions noted are these: fluorescence polarization; read-out: beta-Catenin FP IC50. (In general: In fluorescence polarisation assays a small probe gives low polarisation when free and higher when bound to something large.)

Experiment [2] deals with T2, beta-catenin/TCF4 engagement (Homo sapiens, UniProt P35222).
T2 construct: expressed in transfected cells; host or cells: HEK293
T2 sequence (P35222 1-781): T1 sequence (P35222 1-781)
The experiment can be described thus: Nano-BRET target engagement assay (B-cat-Halo & TCF4-Luc in HEK293 cells). Type of experiment: cell-based. The conditions noted are these: absolute IC50; read-out: NanoBRET Abs IC50.

Each structure is given as a SMILES string.

As usually defined, the IC50 is the point on the concentration scale where inhibition reaches its midpoint. As to `CC(=O)N1CCC[C@]12CC=CCCCC1(CCCC=CCCCOC(=O)N3CC[C@@](C(=O)N[C@@H](Cc4ccsc4)C(=O)N[C@@H](Cc4csc5ccccc45)C(=O)N[C@@H](CCC(N)=O)C(N)=O)(C3)NC(=O)[C@H](CC(C)C)NC(=O)[C@H](Cc3ccccc3)NC(=O)[C@H](CCN3CCOCC3)NC(=O)[C@H](C)NC(=O)[C@H](CC(=O)O)NC(=O)[C@H](CC(=O)O)NC1=O)NC(=O)[C@H](CC(C)(C)C)NC(=O)[C@H](CC(=O)O)NC2=O` (stereo partly drawn) [I-1504, Ac-PL3-Asp-Npg-B5-Asp-Asp-Ala-MorphAbu-Phe-Leu-PyrS2-3Thi-BztA-Gln-NH2], the IC50 is 46 nM in experiment [1] and greater than 20000 nM in experiment [2].
In the same order, the values of `CC(=O)N1CCC[C@]12CC=CCCCC1(CCCC=CCCCOC(=O)N3CC[C@@](C(=O)N[C@@H](Cc4ccsc4)C(=O)N[C@@H](Cc4csc5ccccc45)C(=O)N[C@@H](CCC(N)=O)C(N)=O)(C3)NC(=O)[C@H](CC(C)C)NC(=O)[C@H](Cc3ccccc3)NC(=O)[C@H](CCN3CCC(F)(F)CC3)NC(=O)[C@H](C)NC(=O)[C@H](CC(=O)O)NC(=O)[C@H](CC(=O)O)NC1=O)NC(=O)[C@H](CC(C)(C)C)NC(=O)[C@H](CC(=O)O)NC2=O` (stereo partly drawn) [I-1505, Ac-PL3-Asp-Npg-B5-Asp-Asp-Ala-F2PipAbu-Phe-Leu-PyrS2-3Thi-BztA-Gln-NH2] are 39 nM and greater than 20000 nM.
In the case of `CC(=O)N1CCC[C@]12CC=CCCCC1(CCCC=CCCCOC(=O)N3CC[C@@](C(=O)N[C@@H](Cc4ccsc4)C(=O)N[C@@H](Cc4csc5ccccc45)C(=O)N[C@@H](CCC(N)=O)C(N)=O)(C3)NC(=O)[C@H](CC(C)C)NC(=O)[C@H](Cc3ccccc3)NC(=O)[C@H](CC(=O)N3CCOCC3)NC(=O)[C@H](C)NC(=O)[C@H](CC(=O)O)NC(=O)[C@H](CC(=O)O)NC1=O)NC(=O)[C@H](CC(C)(C)C)NC(=O)[C@H](CC(=O)O)NC2=O` (stereo partly drawn) [I-1507, Ac-PL3-Asp-Npg-B5-Asp-Asp-Ala-MorphAsn-Phe-Leu-PyrS2-3Thi-BztA-Gln-NH2], the IC50 in experiment [1] was 30 nM; in experiment [2], greater than 20000 nM.
Consider `CC(=O)N1CCC[C@]12CC=CCCCC1(CCCC=CCCCOC(=O)N3CC[C@@](C(=O)N[C@@H](Cc4ccsc4)C(=O)N[C@@H](Cc4csc5ccccc45)C(=O)N[C@@H](CCO)C(N)=O)(C3)NC(=O)[C@H](CC(C)C)NC(=O)[C@H](Cc3ccccc3)NC(=O)[C@H](C)NC(=O)[C@H](C)NC(=O)[C@H](CC(=O)O)NC(=O)[C@H](CC(=O)O)NC1=O)NC(=O)[C@H](Cc1ccccc1)NC(=O)[C@H](CC(=O)O)NC2=O` (stereo partly drawn) [I-1510, Ac-PL3-Asp-Phe-B5-Asp-Asp-Ala-Ala-Phe-Leu-PyrS2-3Thi-BztA-Hse-NH2], for which the IC50 was 10 nM in experiment [1] and 31800 nM in experiment [2].
Consider `CC(=O)N1CCC[C@]12CC=CCCCC1(CCCC=CCCCOC(=O)N3CC[C@@](C(=O)N[C@@H](Cc4ccsc4)C(=O)N[C@@H](Cc4csc5ccccc45)C(=O)N[C@@H](CCC(N)=O)C(N)=O)(C3)NC(=O)[C@H](CC(C)C)NC(=O)[C@H](Cc3ccccc3)NC(=O)[C@H](C)NC(=O)[C@H](C)NC(=O)[C@H](CC(=O)O)NC(=O)[C@H](CC(=O)O)NC1=O)NC(=O)[C@H](Cc1ccc(O)cc1)NC(=O)[C@H](CC(=O)O)NC2=O` (stereo partly drawn) [I-1511, Ac-PL3-Asp-Tyr-B5-Asp-Asp-Ala-Ala-Phe-Leu-PyrS2-3Thi-BztA-Gln-NH2], for which the results for the IC50 in experiment [1] and in experiment [2] were 5 nM and greater than 20000 nM, respectively.
For `CC(=O)N1CCC[C@]12CC=CCCCC1(CCCC=CCCCOC(=O)N3CC[C@@](C(=O)N[C@@H](Cc4ccsc4)C(=O)N[C@@H](Cc4csc5ccccc45)C(=O)N[C@@H](CCO)C(N)=O)(C3)NC(=O)[C@H](CC(C)C)NC(=O)[C@H](Cc3ccccc3)NC(=O)[C@H](C)NC(=O)[C@H](C)NC(=O)[C@H](CC(=O)O)NC(=O)[C@H](CC(=O)O)NC1=O)NC(=O)[C@H](Cc1ccc(O)cc1)NC(=O)[C@H](CC(=O)O)NC2=O` (stereo partly drawn) [I-1512, Ac-PL3-Asp-Tyr-B5-Asp-Asp-Ala-Ala-Phe-Leu-PyrS2-3Thi-BztA-Hse-NH2] the same measures were 12 nM and greater than 20000 nM.
Take `CC(=O)N1CCC[C@]12CC=CCCCC1(CCCC=CCCCOC(=O)N3CC[C@@](C(=O)N[C@@H](Cc4ccsc4)C(=O)N[C@@H](Cc4csc5ccccc45)C(=O)N[C@@H](CCC(N)=O)C(N)=O)(C3)NC(=O)[C@H](CC(C)C)NC(=O)[C@H](Cc3ccccc3)NC(=O)[C@H](C)NC(=O)[C@H](C)NC(=O)[C@H](CC(=O)O)NC(=O)[C@H](CC(=O)O)NC1=O)NC(=O)[C@H](CO)NC(=O)[C@H](CC(=O)O)NC2=O` (stereo partly drawn) [I-1513, Ac-PL3-Asp-Ser-B5-Asp-Asp-Ala-Ala-Phe-Leu-PyrS2-3Thi-BztA-Gln-NH2]: the IC50 is 21 nM in experiment [1] and greater than 20000 nM in experiment [2].
As for `CC(=O)N1CCC[C@]12CC=CCCCC1(CCCC=CCCCOC(=O)N3CC[C@@](C(=O)N[C@@H](Cc4ccsc4)C(=O)N[C@@H](Cc4csc5ccccc45)C(=O)N[C@@H](CCC(N)=O)C(N)=O)(C3)NC(=O)[C@H](CC(C)C)NC(=O)[C@H](Cc3ccccc3)NC(=O)[C@H](C)NC(=O)[C@H](C)NC(=O)[C@H](CC(=O)O)NC(=O)[C@H](CC(=O)O)NC1=O)NC(=O)[C@H]([C@@H](C)O)NC(=O)[C@H](CC(=O)O)NC2=O` (stereo partly drawn) [I-1515, Ac-PL3-Asp-Thr-B5-Asp-Asp-Ala-Ala-Phe-Leu-PyrS2-3Thi-BztA-Gln-NH2], the IC50 was 24 nM in experiment [1] and greater than 20000 nM in experiment [2].
In the same order, the values of `CC(=O)N1CCC[C@]12CC=CCCCC1(CCCC=CCCCOC(=O)N3CC[C@@](C(=O)N[C@@H](Cc4ccsc4)C(=O)N[C@@H](Cc4csc5ccccc45)C(=O)N[C@@H](CCO)C(N)=O)(C3)NC(=O)[C@H](CC(C)C)NC(=O)[C@H](Cc3ccccc3)NC(=O)[C@H](C)NC(=O)[C@H](C)NC(=O)[C@H](CC(=O)O)NC(=O)[C@H](CC(=O)O)NC1=O)NC(=O)[C@H]([C@@H](C)O)NC(=O)[C@H](CC(=O)O)NC2=O` (stereo partly drawn) [I-1516, Ac-PL3-Asp-Thr-B5-Asp-Asp-Ala-Ala-Phe-Leu-PyrS2-3Thi-BztA-Hse-NH2] are 30 nM and greater than 20000 nM.
In the case of `CC(=O)N1CCC[C@]12CC=CCCCC1(CCCC=CCCCOC(=O)N3CC[C@@](C(=O)N[C@@H](Cc4ccsc4)C(=O)N[C@@H](Cc4csc5ccccc45)C(=O)N[C@@H](CCC(N)=O)C(N)=O)(C3)NC(=O)[C@H](CC(C)C)NC(=O)[C@H](Cc3ccccc3)NC(=O)[C@H](C)NC(=O)[C@H](C)NC(=O)[C@H](CC(=O)O)NC(=O)[C@H](CC(=O)O)NC1=O)NC(=O)[C@H](CC(N)=O)NC(=O)[C@H](CC(=O)O)NC2=O` (stereo partly drawn) [I-1517, Ac-PL3-Asp-Asn-B5-Asp-Asp-Ala-Ala-Phe-Leu-PyrS2-3Thi-BztA-Gln-NH2], the IC50 in experiment [1] was 32 nM; in experiment [2], greater than 20000 nM.
For `CC(=O)N1CCC[C@]12CC=CCCCC1(CCCC=CCCCOC(=O)N3CC[C@@](C(=O)N[C@@H](Cc4ccsc4)C(=O)N[C@@H](Cc4csc5ccccc45)C(=O)N[C@@H](CCC(N)=O)C(N)=O)(C3)NC(=O)[C@H](CC(C)C)NC(=O)[C@H](Cc3ccccc3)NC(=O)[C@H](C)NC(=O)[C@H](C)NC(=O)[C@H](CC(=O)O)NC(=O)[C@H](CC(=O)O)NC1=O)NC(=O)[C@H](CC1CCCCC1)NC(=O)[C@H](CC(=O)O)NC2=O` (stereo partly drawn) [I-1519, Ac-PL3-Asp-Cha-B5-Asp-Asp-Ala-Ala-Phe-Leu-PyrS2-3Thi-BztA-Gln-NH2] the same measures were 10 nM and 12800 nM.
For `CC(=O)N1CCC[C@]12CC=CCCCC1(CCCC=CCCCOC(=O)N3CC[C@@](C(=O)N[C@@H](Cc4ccsc4)C(=O)N[C@@H](Cc4csc5ccccc45)C(=O)N[C@@H](CCO)C(N)=O)(C3)NC(=O)[C@H](CC(C)C)NC(=O)[C@H](Cc3ccccc3)NC(=O)[C@H](C)NC(=O)[C@H](C)NC(=O)[C@H](CC(=O)O)NC(=O)[C@H](CC(=O)O)NC1=O)NC(=O)[C@H](CC1CCCCC1)NC(=O)[C@H](CC(=O)O)NC2=O` (stereo partly drawn) [I-1520, Ac-PL3-Asp-Cha-B5-Asp-Asp-Ala-Ala-Phe-Leu-PyrS2-3Thi-BztA-Hse-NH2] the same measures were 11 nM and 17400 nM.
For `CCCC[C@@H]1NC(=O)[C@H](CC(=O)O)NC(=O)[C@]2(CC=CCCCC3(CCCC=CCCCCCC[C@@](C)(C(=O)N[C@@H](Cc4ccccc4)C(=O)N[C@@H](Cc4csc5ccccc45)C(=O)N[C@@H](CCC(N)=O)C(N)=O)NC(=O)[C@H](CCC(N)=O)NC(=O)[C@H](Cc4ccccc4)NC(=O)[C@H](C)NC(=O)[C@H](C)NC(=O)[C@H](CCC(=O)O)NC(=O)[C@H](CC(=O)O)NC3=O)NC1=O)CCCN2C(C)=O` (stereo partly drawn) [I-1521, Ac-PL3-Asp-nLeu-B5-Asp-Glu-Ala-Ala-Phe-Gln-S8-Phe-BztA-Gln-NH2] the same measures were 16 nM and 6000 nM.

The record behind these values is patent US20240116985A1, “STAPLED PEPTIDES AND METHODS THEREOF” (priority 2020, published 2024).
